Molecules are shown by their SMILES. Calls of active or inactive are those of the source. The rule behind the calls is not given here. Where only a bound is given, the exact number is not on record here.

As a reminder, the IC50 is the point on the concentration scale where inhibition reaches its midpoint. One may read the AUC(0-inf) as the area under the concentration-time curve extrapolated to infinity. Low values mean less exposure, high ones more exposure. Broadly, the ED50 is the dose at which the effect has come halfway, by size or by number of responders. Usually EC50 stands for the midpoint of the concentration-response curve. The half-life is how long it takes for the measured level to halve. By bioavailability is commonly meant dose-corrected exposure relative to a reference, in per cent. Read a low bioavailability as poor availability. One may read the clearance as the volume of plasma or blood freed of the substance per unit of time. Low readings indicate a low capacity for elimination, high ones a high capacity for elimination. One may read the Cmax as the maximum level reached in the sampled fluid or tissue.

Series [1] addresses T1, Mineralocorticoid receptor (Homo sapiens, UniProt P08235).
T1 sequence (P08235 whole entry): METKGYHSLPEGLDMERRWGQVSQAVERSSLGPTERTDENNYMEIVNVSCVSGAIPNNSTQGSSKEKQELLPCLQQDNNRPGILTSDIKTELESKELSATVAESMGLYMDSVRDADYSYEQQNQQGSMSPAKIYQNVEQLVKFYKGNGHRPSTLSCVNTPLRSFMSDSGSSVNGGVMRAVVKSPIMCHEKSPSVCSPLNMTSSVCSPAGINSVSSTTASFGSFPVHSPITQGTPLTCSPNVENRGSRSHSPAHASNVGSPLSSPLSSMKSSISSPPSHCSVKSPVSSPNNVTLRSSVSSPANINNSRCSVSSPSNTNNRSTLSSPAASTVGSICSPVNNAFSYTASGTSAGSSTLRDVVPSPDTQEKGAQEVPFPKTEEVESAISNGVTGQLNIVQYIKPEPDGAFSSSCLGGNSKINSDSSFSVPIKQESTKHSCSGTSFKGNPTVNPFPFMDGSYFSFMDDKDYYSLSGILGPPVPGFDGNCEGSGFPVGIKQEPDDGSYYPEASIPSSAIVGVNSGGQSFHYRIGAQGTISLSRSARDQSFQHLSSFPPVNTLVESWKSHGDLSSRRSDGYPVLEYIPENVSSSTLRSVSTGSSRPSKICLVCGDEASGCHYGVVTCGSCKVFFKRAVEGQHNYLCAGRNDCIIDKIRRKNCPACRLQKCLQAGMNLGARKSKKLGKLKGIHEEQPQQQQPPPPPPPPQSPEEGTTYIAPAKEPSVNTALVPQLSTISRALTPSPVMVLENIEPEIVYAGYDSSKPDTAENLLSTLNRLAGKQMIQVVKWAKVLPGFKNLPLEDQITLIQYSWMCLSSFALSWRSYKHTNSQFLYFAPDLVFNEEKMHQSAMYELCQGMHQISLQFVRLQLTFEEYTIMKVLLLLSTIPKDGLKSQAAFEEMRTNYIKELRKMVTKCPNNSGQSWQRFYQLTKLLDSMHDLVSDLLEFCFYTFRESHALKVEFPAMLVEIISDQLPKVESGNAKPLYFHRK
In words: Binding affinity to mineralocorticoid receptor expressed in baculovirus-infected insect cells using tetramethylrhodamine labeled Dexamethasone by fluorescence polarization microplate assay. (Polarisation of emitted light reports the rotation of a fluorescent probe.)

Series [2] is described as follows: AUC (infinity) in Sprague-Dawley rat at 30 mg/kg, po. It counts as ADME, organism-based, Plasma. Further details: time infinity, dose 30 mg/kg, route oral. The following applies: Sprague-Dawley, plasma.
Series [3] relates to Mus musculus. The series is described as follows: Antiinflammatory effect in collagen and Freund's complete adjuvant-induced B10.RIII mouse arthritis model assessed as inhibition of disease progression at 100 mg/kg, po qd for 5 weeks. In kind it is functional, organism-based. Further details: dose 100 mg/kg.
Series [4] deals with Mus musculus. The series is described as follows: Antiinflammatory effect in collagen and Freund's complete adjuvant-induced B10.RIII mouse arthritis model assessed as inhibition of disease progression administered as po qd for 5 weeks. In kind it is functional. The following applies: 840 h.
The target in series [5] is T2, Glucocorticoid receptor (Homo sapiens, UniProt P04150).
T2 sequence (P04150 whole entry): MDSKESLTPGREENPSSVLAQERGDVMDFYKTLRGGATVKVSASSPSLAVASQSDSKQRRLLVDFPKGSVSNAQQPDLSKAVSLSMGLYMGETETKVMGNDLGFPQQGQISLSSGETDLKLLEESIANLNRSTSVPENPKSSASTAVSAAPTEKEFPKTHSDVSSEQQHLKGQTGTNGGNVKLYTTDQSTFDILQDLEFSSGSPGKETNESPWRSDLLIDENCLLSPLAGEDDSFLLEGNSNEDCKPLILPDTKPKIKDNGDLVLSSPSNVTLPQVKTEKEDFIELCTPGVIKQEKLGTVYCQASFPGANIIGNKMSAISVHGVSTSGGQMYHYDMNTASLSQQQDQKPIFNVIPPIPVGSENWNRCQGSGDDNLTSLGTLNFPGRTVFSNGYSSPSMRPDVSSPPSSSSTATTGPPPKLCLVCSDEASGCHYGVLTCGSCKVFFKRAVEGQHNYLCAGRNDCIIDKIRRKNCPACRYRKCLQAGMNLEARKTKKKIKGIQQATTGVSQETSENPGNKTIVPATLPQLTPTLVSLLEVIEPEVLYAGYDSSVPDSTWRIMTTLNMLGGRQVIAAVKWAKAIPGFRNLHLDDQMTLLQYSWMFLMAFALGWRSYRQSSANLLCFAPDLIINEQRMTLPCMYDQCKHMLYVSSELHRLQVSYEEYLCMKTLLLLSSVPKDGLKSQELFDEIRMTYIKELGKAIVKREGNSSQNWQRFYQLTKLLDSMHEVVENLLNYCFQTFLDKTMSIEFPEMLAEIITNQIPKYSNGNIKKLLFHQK
In words: Transactivation activity at glucocorticoid receptor in HFF assessed as induction of aromatase activity after 18 to 24 hrs by ELISA. In kind it is cell-based. For orientation: In an ELISA, binding on a coated surface is turned into a signal by an enzyme label.

The nature of series [6]: Half life in Sprague-Dawley rat at 2 mg/kg, iv. It counts as ADME, organism-based. Particulars: in vivo. Also on record: dose 2 mg/kg, route intravenous.
Series [7] can be described thus: Volume of distribution at steady state in Sprague-Dawley rat at 2 mg/kg, iv. It counts as ADME, organism-based. Also on record: dose 2 mg/kg, route intravenous. The following applies: in vivo, read-out: Vdss.
The target of series [8] is T2, Glucocorticoid receptor. The series is described as follows: Transrepression activity at glucocorticoid receptor in HFF assessed as inhibition of IL-1-induced IL-6 production after 18 to 24 hrs by ELISA. In kind it is cell-based.
Series [9] can be described thus: Oral bioavailability in Sprague-Dawley rat at 30 mg/kg. It counts as ADME, organism-based. The following applies: Sprague-Dawley, in vivo.
Series [10] has as its system Mus musculus. The series is described as follows: Toxicity in B10.RIII mouse assessed as increase of body fat content at 100 mg/kg, po qd for 5 weeks. It counts as organism-based. Further details: dose 100 mg/kg, route oral. Particulars: in vivo, 840 h.
For series [11], the system named is Mus musculus. The series is described as follows: Antiinflammatory activity in po dosed BALB/c mouse assessed as reduction of LPS-induced plasma TNFalpha level administered 1 hr before LPS challenge by ELISA. In kind it is functional.
A short description of series [12]: Clearance in Sprague-Dawley rat at 2 mg/kg, iv. In kind it is ADME, organism-based. The following applies: in vivo. Further details: dose 2 mg/kg, route intravenous.
For series [13], the system named is Mus musculus. The series is described as follows: Toxicity in B10.RIII mouse assessed as increase of serum insulin level at 100 mg/kg, po qd for 5 weeks. In kind it is organism-based. Also on record: dose 100 mg/kg, route oral. Particulars: in vivo, 840 h.
In series [14] the target is T2, Glucocorticoid receptor. The series is described as follows: Binding affinity to glucocorticoid receptor expressed in baculovirus-infected insect cells using tetramethylrhodamine labeled Dexamethasone by fluorescence polarization microplate assay.
The target in series [15] is T2, Glucocorticoid receptor. In words: Transactivation activity at glucocorticoid receptor in human HeLa cells transfected with luciferase gene linked to MMTV promoter by luciferase assay. It counts as cell-based.
The target of series [16] is T3, Progesterone receptor (Homo sapiens, UniProt P06401).
T3 sequence (P06401 whole entry): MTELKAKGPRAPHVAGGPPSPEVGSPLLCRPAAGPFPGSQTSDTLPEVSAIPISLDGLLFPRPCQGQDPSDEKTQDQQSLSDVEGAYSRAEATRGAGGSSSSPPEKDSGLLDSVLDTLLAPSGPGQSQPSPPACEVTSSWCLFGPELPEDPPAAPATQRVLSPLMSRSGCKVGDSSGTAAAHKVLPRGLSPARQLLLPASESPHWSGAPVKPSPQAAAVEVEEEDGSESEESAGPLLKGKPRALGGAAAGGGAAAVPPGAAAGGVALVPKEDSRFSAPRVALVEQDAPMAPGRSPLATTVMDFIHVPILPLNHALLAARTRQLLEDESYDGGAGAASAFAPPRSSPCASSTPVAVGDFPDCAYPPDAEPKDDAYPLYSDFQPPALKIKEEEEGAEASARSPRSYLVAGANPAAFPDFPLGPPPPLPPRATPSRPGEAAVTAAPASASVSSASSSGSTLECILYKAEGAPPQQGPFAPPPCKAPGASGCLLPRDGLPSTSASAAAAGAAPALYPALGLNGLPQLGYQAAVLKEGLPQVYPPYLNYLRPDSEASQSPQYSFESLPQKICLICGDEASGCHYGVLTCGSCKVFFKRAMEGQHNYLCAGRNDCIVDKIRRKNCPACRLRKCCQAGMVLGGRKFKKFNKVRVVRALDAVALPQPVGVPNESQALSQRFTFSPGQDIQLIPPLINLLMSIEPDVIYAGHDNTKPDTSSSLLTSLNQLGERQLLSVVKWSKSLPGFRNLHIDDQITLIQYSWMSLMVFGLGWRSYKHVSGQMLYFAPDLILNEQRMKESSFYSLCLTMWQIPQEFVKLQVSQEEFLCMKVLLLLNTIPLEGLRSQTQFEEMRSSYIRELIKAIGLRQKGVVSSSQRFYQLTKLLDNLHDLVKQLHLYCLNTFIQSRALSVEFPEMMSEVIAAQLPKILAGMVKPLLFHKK
The series is described as follows: Binding affinity to progesterone receptor expressed in baculovirus-infected insect cells using tetramethylrhodamine labeled RU-486 by fluorescence polarization microplate assay.

A short description of series [17]: Cmax in Sprague-Dawley rat at 30 mg/kg, po. Further details: dose 30 mg/kg, route oral. The following applies: in vivo. It counts as ADME, organism-based.

As for `COc1ccc(-c2cncnc2)cc1C(C)(C)C[C@@](O)(Cc1cc2ccncc2[nH]1)C(F)(F)F`, the 50% inhibitory concentration (IC50) in series [1] was above 2000 nM; in series [8] it was 20 nM; in series [14], 8 nM; in series [15] it was above 2000 nM; in series [16], above 2000 nM. Also, the AUC(0-inf) in series [2] is 5930 ng·h/mL. In addition, the outcome in series [3] was Active. The ED50 is 30 mg/kg in series [4] and below 1 mg/kg in [11]. Moreover, the EC50 in series [5] was above 2000 nM. This compound had a half-life in series [6] of 1 h. The Vd in [7] came out at 6.6 L/kg. For the same compound, the bioavailability in series [9] amounted to 97%. Also, the Activity entry in series [10] and in series [13] was “Non-toxic” throughout. This compound also came in with a clearance in series [12] of 83 mL/min/kg. The compound further registered a Cmax in series [17] of 422 ng/mL.

Turning to `CC(C)(CC(O)(Cc1cc2ccncc2[nH]1)C(F)(F)F)c1ccccc1` (centres undefined), the IC50 is 810 nM in [1]; 31 nM in [8]; 9.3 nM in [14]; above 2000 nM in series [15]; 190 nM in series [16]. Further, the EC50 in series [5] was above 2000 nM.

For `CC(C)(CC(O)(Cc1cc2ccncc2[nH]1)C(F)(F)F)c1cc(-c2ccccc2)ccc1O` (centres undefined), the IC50 is 160 nM in series [1]; 15 nM in series [8]; 11 nM in series [14]; 47 nM in [15]; 1300 nM in series [16]. In series [5], the EC50 was 45 nM.

For the origin of these results see ChEMBL document CHEMBL1250518, “Nonsteroidal dissociated glucocorticoid agonists containing azaindoles as steroid A-ring mimetics” (J Med Chem, 2010).
